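Test compounds were applied to cells in 96-well plates for 48 hours at 5 doses. Abbreviation: GI50, concentration required for 50% inhibition of growth.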 Activity calls are given as the source filed them. Cut-off read from the data, not from the text of the source: active = GI50 up to about 1.1 µM and inactive = higher.
Key:
Assay in all cases: inhibition of tumour cell growth, NCI panel, 48 h
ACHN = test system: ACHN
BT-549 = test system: BT-549
COLO 205 = test system: COLO 205
HCC 2998 = test system: HCC 2998
HOP-62 = test system: HOP-62
HT-29 = test system: HT-29
IGROV-1 = test system: IGROV-1
LOX IMVI = test system: LOX IMVI
MDA-N = test system: MDA-N
MOLT-4 = test system: MOLT-4
NCI-H226 = test system: NCI-H226
OVCAR-4 = test system: OVCAR-4
OVCAR-5 = test system: OVCAR-5
RXF 393 = test system: RXF 393
SF-539 = test system: SF-539
SK-MEL-28 = test system: SK-MEL-28
SK-OV-3 = test system: SK-OV-3
SN12C = test system: SN12C
SW-620 = test system: SW-620
UACC-62 = test system: UACC-62

SMILES | GI50 (ACHN) | GI50 (BT-549) | GI50 (COLO 205) | GI50 (HCC 2998) | GI50 (HOP-62) | GI50 (HT-29) | GI50 (IGROV-1) | GI50 (LOX IMVI) | GI50 (MDA-N) | GI50 (MOLT-4) | GI50 (NCI-H226) | GI50 (OVCAR-4) | GI50 (OVCAR-5) | GI50 (RXF 393) | GI50 (SF-539) | GI50 (SK-MEL-28) | GI50 (SK-OV-3) | GI50 (SN12C) | GI50 (SW-620) | GI50 (UACC-62)
Cc1cc2c(cc1-c1cc3c(cc1C)C(C(C)C)=C(O)C(=O)/C3=C\NCC1CCCN3CCCCC13)/C(=C/NCC1CCCN3CCCCC13)C(=O)C(O)=C2C(C)C (centres undefined) | 3.81 µM (inactive) | 15.9 µM (inactive) | 3.47 µM (inactive) | 17.5 µM (inactive) | 4.27 µM (inactive) | 2.47 µM (inactive) | 5.97 µM (inactive) | 3.35 µM (inactive) | 5.78 µM (inactive) | 3.52 µM (inactive) | 11 µM (inactive) | 6.79 µM (inactive) | 10.8 µM (inactive) | 5.93 µM (inactive) | 14.9 µM (inactive) | 12.1 µM (inactive) | 4 µM (inactive) | 4.82 µM (inactive) | 5.48 µM (inactive) | 7.78 µM (inactive)
COc1ccc(C(OCC2OC(n3cnc4c(=O)n(Cc5ccccc5[N+](=O)[O-])nnc43)C(O)C2O)(c2ccccc2)c2ccc(OC)cc2)cc1 (centres undefined) | 14 µM (inactive) | 16.4 µM (inactive) | 6.84 µM (inactive) | 6.97 µM (inactive) | 21.6 µM (inactive) | 4.31 µM (inactive) | 10.9 µM (inactive) | 6.85 µM (inactive) | 7.52 µM (inactive) | 2.31 µM (inactive) | 5.92 µM (inactive) | 20.6 µM (inactive) | 27.8 µM (inactive) | 11.5 µM (inactive) | 11.8 µM (inactive) | 16.7 µM (inactive) | 20.4 µM (inactive) | 6.9 µM (inactive) | 17.6 µM (inactive) | 12.5 µM (inactive)
CCCNC(=O)CCC(C)[C@H]1CCC2C3C(C[C@H](OC(C)=O)[C@@]21C)[C@@]1(C)CCC2(C[C@H]1C[C@H]3OC(C)=O)OOC1(CCCCC1)OO2 (some centres undefined) | 1.24 µM (inactive) | 2.55 µM (inactive) | 1.75 µM (inactive) | 2.7 µM (inactive) | 0.261 µM (active) | 3.96 µM (inactive) | 0.478 µM (active) | 1.84 µM (inactive) | 3.05 µM (inactive) | 1.67 µM (inactive) | 3.84 µM (inactive) | 1.74 µM (inactive) | 2.67 µM (inactive) | 3.24 µM (inactive) | 3.66 µM (inactive) | 55.5 µM (inactive) | 24.9 µM (inactive) | 3.01 µM (inactive) | 4.58 µM (inactive) | 2.01 µM (inactive)
COc1cc(NCCC2CCCCN2)c2ncccc2c1 (centres undefined) | > 100 µM (inactive) | > 100 µM (inactive) | 13.5 µM (inactive) | 16.4 µM (inactive) | > 96.4 µM (inactive) | 41.7 µM (inactive) | 8.87 µM (inactive) | 52.2 µM (inactive) | 36.3 µM (inactive) | 7.11 µM (inactive) | > 63.8 µM (inactive) | > 70.5 µM (inactive) | > 100 µM (inactive) | 22.2 µM (inactive) | > 100 µM (inactive) | 29.2 µM (inactive) | > 100 µM (inactive) | > 49.4 µM (inactive) | > 70.6 µM (inactive) | 24.8 µM (inactive)
COc1cc2c(cc1OCc1ccccc1)NC(=O)[C@@H]1C[C@@H](O)CN1C2=O | > 100 µM (inactive) | > 100 µM (inactive) | > 100 µM (inactive) | > 100 µM (inactive) | 47.6 µM (inactive) | > 100 µM (inactive) | > 100 µM (inactive) | > 100 µM (inactive) | > 100 µM (inactive) | > 100 µM (inactive) | > 100 µM (inactive) | > 100 µM (inactive) | > 100 µM (inactive) | > 100 µM (inactive) | > 100 µM (inactive) | > 100 µM (inactive) | > 100 µM (inactive) | > 100 µM (inactive) | > 100 µM (inactive) | > 100 µM (inactive)
CCOC(=O)C1CCCCN1C(=O)Cc1c[nH]c2ccccc12 (centres undefined) | 71.4 µM (inactive) | 94.8 µM (inactive) | 66.2 µM (inactive) | 77.8 µM (inactive) | 87.9 µM (inactive) | 72.9 µM (inactive) | 57.7 µM (inactive) | 59.4 µM (inactive) | 49.8 µM (inactive) | 27.4 µM (inactive) | > 100 µM (inactive) | 33.9 µM (inactive) | > 100 µM (inactive) | 76.9 µM (inactive) | > 100 µM (inactive) | > 100 µM (inactive) | > 100 µM (inactive) | > 100 µM (inactive) | 94.8 µM (inactive) | 45.4 µM (inactive)
O=C1C=C(c2ccccc2)O/C1=C/C(=O)c1ccc(Cl)cc1 | 16.6 µM (inactive) | 16.2 µM (inactive) | 16.1 µM (inactive) | 15.4 µM (inactive) | 30.5 µM (inactive) | 18.2 µM (inactive) | 18.3 µM (inactive) | 13.3 µM (inactive) | 16.1 µM (inactive) | 2.85 µM (inactive) | > 10 µM (inactive) | 15.6 µM (inactive) | 17.6 µM (inactive) | 18.9 µM (inactive) | 17.8 µM (inactive) | 18 µM (inactive) | 36.1 µM (inactive) | 16 µM (inactive) | 11.7 µM (inactive) | 14 µM (inactive)
COc1cccc(N2C(=O)C3CC(CC(C)(C)C)c4c([nH]c5ccccc45)C3C2=O)c1 (centres undefined) | > 10 µM (inactive) | 9.51 µM (inactive) | > 10 µM (inactive) | > 10 µM (inactive) | 9.16 µM (inactive) | > 10 µM (inactive) | > 10 µM (inactive) | 9.44 µM (inactive) | > 10 µM (inactive) | > 10 µM (inactive) | 2.77 µM (inactive) | 2.62 µM (inactive) | > 10 µM (inactive) | > 10 µM (inactive) | 2.56 µM (inactive) | > 10 µM (inactive) | > 10 µM (inactive) | 6 µM (inactive) | > 10 µM (inactive) | > 10 µM (inactive)
O=C1C=CC2(C=C1)C[C@H](NC(=O)OCc1ccccc1)C(=O)O2 | 15.8 µM (inactive) | 18 µM (inactive) | 5.93 µM (inactive) | 19.7 µM (inactive) | > 54.2 µM (inactive) | 13.8 µM (inactive) | 19.8 µM (inactive) | 9.93 µM (inactive) | 14.8 µM (inactive) | 1.8 µM (inactive) | 62.4 µM (inactive) | 18.2 µM (inactive) | 20.1 µM (inactive) | 10.2 µM (inactive) | 22.4 µM (inactive) | 13 µM (inactive) | > 67.1 µM (inactive) | 18.2 µM (inactive) | 4.31 µM (inactive) | 17.3 µM (inactive)
CC1OC(c2ccc3c(c2O)C(=O)C2=C(C3=O)C3(O)C(=O)CC(C)(O)CC3(O)C=C2)CC(O)C1O (centres undefined) | 13.6 µM (inactive) | 18.7 µM (inactive) | 1.75 µM (inactive) | 15.5 µM (inactive) | 26.8 µM (inactive) | 5.4 µM (inactive) | 13.4 µM (inactive) | 14 µM (inactive) | 3.23 µM (inactive) | 3.81 µM (inactive) | 19.8 µM (inactive) | 13.7 µM (inactive) | 17 µM (inactive) | 11.4 µM (inactive) | 17.7 µM (inactive) | 15.7 µM (inactive) | 41.3 µM (inactive) | 15 µM (inactive) | 7.98 µM (inactive) | 14.9 µM (inactive)
N#CC(C#N)/N=C/c1ccncc1 | > 100 µM (inactive) | > 100 µM (inactive) | > 100 µM (inactive) | > 100 µM (inactive) | > 100 µM (inactive) | > 100 µM (inactive) | > 100 µM (inactive) | > 100 µM (inactive) | > 100 µM (inactive) | > 100 µM (inactive) | > 100 µM (inactive) | > 100 µM (inactive) | > 100 µM (inactive) | > 100 µM (inactive) | > 100 µM (inactive) | > 100 µM (inactive) | > 100 µM (inactive) | > 100 µM (inactive) | > 100 µM (inactive) | > 100 µM (inactive)
O=C1CC(C(O)(C(F)(F)F)C(F)(F)Cl)CCC1C(O)(C(F)(F)F)C(F)(F)Cl (centres undefined) | > 10 µM (inactive) | > 10 µM (inactive) | 4.6 µM (inactive) | > 10 µM (inactive) | > 10 µM (inactive) | 5.78 µM (inactive) | > 10 µM (inactive) | > 10 µM (inactive) | > 10 µM (inactive) | > 10 µM (inactive) | > 10 µM (inactive) | > 10 µM (inactive) | > 10 µM (inactive) | 3.49 µM (inactive) | 7.18 µM (inactive) | > 10 µM (inactive) | > 10 µM (inactive) | > 10 µM (inactive) | > 10 µM (inactive) | 7.55 µM (inactive)
CC(=O)OC[C@@]1(C)[C@@H]2[C@@H]3[C@@]4(CO[C@]3(C)C(=O)[C@@]3(OC(C)=O)C[C@H](C)[C@H](OC(C)=O)[C@@H]3[C@H]4OC(C)=O)[C@H](OC(=O)c3ccccc3)C[C@@H]21 | > 100 µM (inactive) | > 100 µM (inactive) | 49.8 µM (inactive) | > 100 µM (inactive) | > 100 µM (inactive) | 89.9 µM (inactive) | > 100 µM (inactive) | 79.6 µM (inactive) | > 100 µM (inactive) | – | > 100 µM (inactive) | > 100 µM (inactive) | > 100 µM (inactive) | > 100 µM (inactive) | > 100 µM (inactive) | > 100 µM (inactive) | > 100 µM (inactive) | > 100 µM (inactive) | 78.5 µM (inactive) | > 100 µM (inactive)

From ChEMBL document CHEMBL1201862, “PubChem BioAssay data set” (2004)
